Test results published in the NIST ThermoML archive (doi:10.1021/je049973v).

Conditions: Liquid; for speed of sound: Pulse-echo method; for mass density: Vibrating tube method

CCCCCCCCCCCCCCCCCCc1ccccc1 [octadecylbenzene]
Conditions | mass density [kg/m3] | speed of sound [m/s]
313.15 K, 100 kPa | 840.55 | 1392.9
313.15 K, 5000 kPa | 843.37 | –
313.15 K, 10000 kPa | 846.27 | 1439.6
313.15 K, 15000 kPa | 849.15 | –
313.15 K, 20000 kPa | – | 1484.1
313.15 K, 25000 kPa | 854.46 | –
313.15 K, 30000 kPa | 856.89 | 1525.8
313.15 K, 35000 kPa | 859.36 | –
313.15 K, 40000 kPa | 861.48 | 1564.8
313.15 K, 45000 kPa | 864.12 | –
313.15 K, 50000 kPa | 866.37 | 1602.4
313.15 K, 55000 kPa | 868.59 | –
313.15 K, 60000 kPa | 870.16 | 1638.1
313.15 K, 70000 kPa | – | 1672.1
313.15 K, 80000 kPa | – | 1704.7
323.15 K, 100 kPa | 833.94 | 1357.8
323.15 K, 5000 kPa | 836.91 | –
323.15 K, 10000 kPa | 840.02 | 1406.8
323.15 K, 15000 kPa | 842.88 | –
323.15 K, 20000 kPa | – | 1452.4
323.15 K, 25000 kPa | 848.32 | –
323.15 K, 30000 kPa | 850.96 | 1495.5
323.15 K, 35000 kPa | 853.46 | –
323.15 K, 40000 kPa | 856 | 1535.6
323.15 K, 45000 kPa | 858.41 | –
323.15 K, 50000 kPa | 860.91 | 1574
323.15 K, 55000 kPa | 863.12 | –
323.15 K, 60000 kPa | 865.36 | 1610.3
323.15 K, 70000 kPa | – | 1645.1
323.15 K, 80000 kPa | – | 1678.7
323.15 K, 90000 kPa | – | 1710.4
323.15 K, 100000 kPa | – | 1741.3
323.15 K, 110000 kPa | – | 1771.2
323.15 K, 120000 kPa | – | 1799.2
333.15 K, 100 kPa | 827.32 | 1325.5
333.15 K, 5000 kPa | 830.4 | –
333.15 K, 10000 kPa | 833.56 | 1374.8
333.15 K, 15000 kPa | 836.59 | –
333.15 K, 20000 kPa | – | 1422.6
333.15 K, 25000 kPa | 842.3 | –
333.15 K, 30000 kPa | 845.04 | 1466.1
333.15 K, 35000 kPa | 847.71 | –
333.15 K, 40000 kPa | 850.3 | 1507.5
333.15 K, 45000 kPa | 852.76 | –
333.15 K, 50000 kPa | 855.26 | 1546.7
333.15 K, 55000 kPa | 857.46 | –
333.15 K, 60000 kPa | 859.86 | 1583.5
333.15 K, 70000 kPa | – | 1619.1
333.15 K, 80000 kPa | – | 1652.8
333.15 K, 90000 kPa | – | 1685.7
333.15 K, 100000 kPa | – | 1717
333.15 K, 110000 kPa | – | 1747.3
333.15 K, 120000 kPa | – | 1775.7
333.15 K, 130000 kPa | – | 1803.9
333.15 K, 140000 kPa | – | 1830.9
333.15 K, 150000 kPa | – | 1857.5
343.15 K, 100 kPa | 820.78 | 1292.7
343.15 K, 5000 kPa | 824.1 | –
343.15 K, 10000 kPa | 827.33 | 1344.1
343.15 K, 15000 kPa | 830.48 | –
343.15 K, 20000 kPa | – | 1392.8
343.15 K, 25000 kPa | 836.54 | –
343.15 K, 30000 kPa | 839.35 | 1437.7
343.15 K, 35000 kPa | 841.97 | –
343.15 K, 40000 kPa | 844.62 | 1480.2
343.15 K, 45000 kPa | 847.32 | –
343.15 K, 50000 kPa | 849.82 | 1519.9
343.15 K, 55000 kPa | 852.25 | –
343.15 K, 60000 kPa | 854.6 | 1558.1
343.15 K, 70000 kPa | – | 1594.2
343.15 K, 80000 kPa | – | 1628.6
343.15 K, 90000 kPa | – | 1661.5
343.15 K, 100000 kPa | – | 1693.1
343.15 K, 110000 kPa | – | 1723.6
343.15 K, 120000 kPa | – | 1753.5
343.15 K, 130000 kPa | – | 1781.9
343.15 K, 140000 kPa | – | 1809.4
343.15 K, 150000 kPa | – | 1836.3
353.15 K, 100 kPa | 814.1 | 1260.7
353.15 K, 5000 kPa | 817.72 | –
353.15 K, 10000 kPa | 821.14 | 1313.4
353.15 K, 15000 kPa | 824.47 | –
353.15 K, 20000 kPa | – | 1364.1
353.15 K, 25000 kPa | 830.64 | –
353.15 K, 30000 kPa | 833.58 | 1410
353.15 K, 35000 kPa | 836.52 | –
353.15 K, 40000 kPa | 839.12 | 1454
353.15 K, 45000 kPa | 841.72 | –
353.15 K, 50000 kPa | 844.35 | 1494.4
353.15 K, 55000 kPa | 846.91 | –
353.15 K, 60000 kPa | 849.39 | 1532.6
353.15 K, 70000 kPa | – | 1569.2
353.15 K, 80000 kPa | – | 1604.3
353.15 K, 90000 kPa | – | 1638.2
353.15 K, 100000 kPa | – | 1670.3
353.15 K, 110000 kPa | – | 1701.4
353.15 K, 120000 kPa | – | 1731.3
353.15 K, 130000 kPa | – | 1759.9
353.15 K, 140000 kPa | – | 1788.8
353.15 K, 150000 kPa | – | 1815.1
363.15 K, 100 kPa | 807.7 | 1229.5
363.15 K, 5000 kPa | 811.19 | –
363.15 K, 10000 kPa | 814.87 | 1284.8
363.15 K, 15000 kPa | 818.14 | –
363.15 K, 20000 kPa | – | 1334.9
363.15 K, 25000 kPa | 824.7 | –
363.15 K, 30000 kPa | 827.83 | 1382.7
363.15 K, 35000 kPa | 830.62 | –
363.15 K, 40000 kPa | 833.38 | 1427.1
363.15 K, 45000 kPa | 836.17 | –
363.15 K, 50000 kPa | 838.78 | 1469.1
363.15 K, 55000 kPa | 841.42 | –
363.15 K, 60000 kPa | 843.92 | 1508.3
363.15 K, 70000 kPa | – | 1545.7
363.15 K, 80000 kPa | – | 1581.7
363.15 K, 90000 kPa | – | 1615.7
363.15 K, 100000 kPa | – | 1648.3
363.15 K, 110000 kPa | – | 1679.8
363.15 K, 120000 kPa | – | 1710
363.15 K, 130000 kPa | – | 1739.2
363.15 K, 140000 kPa | – | 1767.5
363.15 K, 150000 kPa | – | 1795.5
373.15 K, 100 kPa | 800.89 | 1198.7
373.15 K, 5000 kPa | 804.86 | –
373.15 K, 10000 kPa | 808.59 | 1255.2
373.15 K, 15000 kPa | 812.16 | –
373.15 K, 20000 kPa | – | 1308.3
373.15 K, 25000 kPa | 818.84 | –
373.15 K, 30000 kPa | 821.97 | 1356.6
373.15 K, 35000 kPa | 825.09 | –
373.15 K, 40000 kPa | 828 | 1401.7
373.15 K, 45000 kPa | 830.8 | –
373.15 K, 50000 kPa | 833.6 | 1444.5
373.15 K, 55000 kPa | 836.29 | –
373.15 K, 60000 kPa | 838.88 | 1484.7
373.15 K, 70000 kPa | – | 1522
373.15 K, 80000 kPa | – | 1558.6
373.15 K, 90000 kPa | – | 1592.9
373.15 K, 100000 kPa | – | 1626.3
373.15 K, 110000 kPa | – | 1657.9
373.15 K, 120000 kPa | – | 1688.5
373.15 K, 130000 kPa | – | 1718.7
373.15 K, 140000 kPa | – | 1746.6
373.15 K, 150000 kPa | – | 1774.6
